# Experimental data reported in patent US20250360177A1, “FERMENTATION PRODUCT FOR THE TREATMENT OF INFLAMMATORY DISEASES” (ALFASIGMA S.P.A., priority 2022, published 2025).
# Tests used:
# IL-10 = IL-10 ELISA in LPS-stimulated RAW264.7 macrophages; format: cell-based; details: LPS 24 hours
# Description: Each solution was centrifuged for 20 min at 2500 rpm, the insoluble residues discarded and the supernatant filtered on 0.22-μm PES filters. […] The cells were divided into 5 groups and each group was treated for 2 hours with […] of each of the Solutions obtained from the plant extracts (Sol. Ex1-Ex5). […] At the end of incubation, the supernatants were collected and analyzed by ELISA assay (Invitrogen kit) to detect the amount of IL-10.
# [1] = tested on: TNBS-induced ulcerative colitis mouse model; test: TNBS-induced ulcerative colitis in mice, plant extract solutions; format: in vivo, C57BL/6 mice; details: TNBS 2 mg/mouse i.r.; 100 mg/kg gavage; day 3
# Description: Ulcerative colitis was induced in a mouse model by administration of 2,4,6-trinitrobenzenesulfonic acid (TNBS) (Yang et al., Scientific Reports, 2016 6: 29716). Male C57BL/6 mice aged 6-8 weeks were divided into groups of 8 mice each. Solutions obtained from the plant extracts (Sol. […] Ex-1 (Scutellaria baicalensis Georgi)/600μL/mouse per gavage • Group E: TNBS 2 mg/mouse in 100 μL i.r.+Sol. Ex-2 (Phaseolus radiatus)/[…]/mouse per gavage • Group F: TNBS 2 mg/mouse in 100 μL i.r.+Sol. Ex-3 (Curcuma longa)/600 μL/mouse per gavage • Group G: TNBS 2 mg/mouse in 100 μL i.r.+Sol. Ex-5 (Broccoli sprouts)/600 μL/mouse per gavage. Mice were sacrificed 6 h after the last administration by cervical dislocation.
# IL-1beta mRNA = IL-1beta mRNA transcription in LPS-stimulated RAW264.7 macrophages (Real-Time PCR); format: cell-based; details: 0.1 mM, LPS 24 hours
# Description: The anti-inflammatory activity of the fermentation product in lyophilic form of L. brevis DSM 33682 obtained in the presence of Phaseolus radiatus sprout extract (Lio-Prob1) according to Example 5, and the product obtained without Phaseolus radiatus sprout extract (Lio-Prob2) according to Example 6, were analyzed by means of determination of the amount of IL-1beta mRNA.
# 3×10^5 Cells/well of RAW264.7 macrophages (ATCC) were seeded on a 24-well plate.
# Ten μl of lipopolysaccharide (LPS) from Sigma-Aldrich n.2630 (10 μg/mL) was added to each well and incubated at 37° C. in a 5% CO2 incubator for 24 hours.
# At the end of incubation, macrophage RNA was extracted and analysed by Real-Time PCR to detect the gene transcription level of the proinflammatory cytokine IL-1beta, calculated as the mean value for the treated groups compared with macrophages treated with LPS alone. In particular, total RNA was isolated from each sample using the mini RNeasy kit (QiaGen GmbH, Hilden, Germany), and 1ug of total RNA was reverse transcribed by IScript™ cDNA Synthesis Kit (BioRad, Hercules, CA, USA). Real-time PCR was carried out by a BioRad CFX96 Touch™ Real-Time PCR Detection System using SsoAdvanced Universal SYBR Green super Mix (BioRad). The expression level of each mRNA was assessed using the ΔΔCT method, and Gapdh was used as housekeeping gene for normalization. The following primers were used.
# [2] = tested on: TNBS-induced colitis mice; test: TNBS-induced colitis in mice, comparison to VSL #3 and E. coli Nissle (Example 12); format: in vivo, C57BL/6 mice; details: TNBS 2 mg/mouse ir; 100 mg per kg mouse os, 4 days
# Description: C57BL/6 Male mice aged 7-8 weeks (ENVIGO, Italy) were housed under standard laboratory conditions: light/dark cycles (12/12 hr), ambient temperature 20±2° C., 55% relative air humidity and food (Mucedola RF18) and water ad libitum.
# Colitis was induced in the mice as previously described, using TNBS (Yang et al., Scientific Reports, 2016 6:29716).
# After 3 h of colitis induction, each group of mice was orally administered with the corresponding treatment for 4 days. During the 4-day trial, the mice were routinely inspected for their body mass, and diarrhea. All mice were sacrificed by cervical dislocation for sample collection at the end of day 4.
# [3] = tested on: TNF-α, IL-1β and IL-10 gene expression; test: Relative quantitative real-time PCR of colonic cells of TNBS-induced colitis mice; format: in vivo, C57BL/6 mice; details: Lio-Prob1 12 mg/kg or mesalazine 100 mg/kg orally 4 days
# Description: RNA of colonic cells of C57BL/6 male mice treated according to Example 8 was isolated with Trizol (Life-technologies). […] BIO 65053). Real-time PCR was performed using SYBR green Master Mix (#1725150, Biorad). GAPDH was used as internal control. The relative transcription mRNA level was calculated.
# [4] = tested on: TNBS-induced ulcerative colitis mouse model; test: TNBS-induced ulcerative colitis in mice, DAI score and colon length (Example 6); format: in vivo, C57BL/6 mice; details: TNBS 2 mg/mouse i.r.; 100 mg/kg per gavage
# Description: The efficacy of fermentation products of L. brevis DSM 33682 obtained in the presence of Phaseolus radiatus sprout extract (Lio-Prob1) or absence of the extract (Lio-Prob2) was determined by measurement of DAI score and colonic length. Male C57BL/6 mice (Envigo) aged 6-8 weeks (8 mice/group), ulcerative colitis was induced with 2,4,6-trinitrobenzenesulfonic acid (TNBS) (Yang et al., Scientific Reports, 2016 6:29716). […] Mice were sacrificed by cervical dislocation 6 h after the last administration. The disease activity index, expressed by DAI score, of C57BL/6 mice was measured according to the method reported by Yang et al., Scientific Reports, 2016 6:29716.
smiles,measurement,setting,value
CC(=O)O [Acetate],% IL-10 (vs LPS) ± SD,IL-10; 5 mM,199 ± 14%
CCCC(=O)O [Butyrate],% IL-10 (vs LPS) ± SD,IL-10; 0.62 mM,268 ± 71%
Nc1ccc(O)c(C(=O)O)c1 [Mesalazine],colon length (mm) ± SE,[1],68 ± 1.9 mm
same,mRNA IL-1beta transcription inhibition compared to LPS treatment,IL-1beta mRNA,59%
same,BWL body weight loss % max,[2],4%
same,% IL-10 (vs LPS) ± SD,IL-10; 0.1 mM,216 ± 55%
same,% IL-10 (vs LPS) ± SD,IL-10; 0.2 mM,269 ± 18%
same,"expression levels of pro-inflammatory genes, including TNF-α and IL-1β (in words)",[3]; colon of TNBS-induced acute colitis mice,reduced the expression levels of pro-inflammatory genes
same,expression of IL-10 (in words),[3]; colon of TNBS-induced colitis mice,increased
same,DAI score ± SE,[4],1.1 ± 0.5
same,colon length (mm) ± SE,[4],66.6 ± 0.5 mm
CCC(=O)O [Propionate],% IL-10 (vs LPS) ± SD,IL-10; 10 mM,135 ± 2%
